pIC50: −log10 of the molar value.
Tests used:
human CRTH2 = target: T1, human CRTH2 (Homo sapiens, UniProt Q9Y5Y4); assay: Measurement of Ca2+ mobilization in the human CRTH2-transfected L1.2 cell line (Assay 1); assay type: cell-based; details: PGD2-induced Ca2+ mobilization in CRTH2-transfected L1.2 cells; compounds as yielded by solid phase synthesis, purity about 40 to 90%; read-out: Activity class
T1 construct: expressed in transfected cells; host or cells: L1.2 cells, pEAK expression vector, puromycin-selected
T1 sequence (Q9Y5Y4 1-395): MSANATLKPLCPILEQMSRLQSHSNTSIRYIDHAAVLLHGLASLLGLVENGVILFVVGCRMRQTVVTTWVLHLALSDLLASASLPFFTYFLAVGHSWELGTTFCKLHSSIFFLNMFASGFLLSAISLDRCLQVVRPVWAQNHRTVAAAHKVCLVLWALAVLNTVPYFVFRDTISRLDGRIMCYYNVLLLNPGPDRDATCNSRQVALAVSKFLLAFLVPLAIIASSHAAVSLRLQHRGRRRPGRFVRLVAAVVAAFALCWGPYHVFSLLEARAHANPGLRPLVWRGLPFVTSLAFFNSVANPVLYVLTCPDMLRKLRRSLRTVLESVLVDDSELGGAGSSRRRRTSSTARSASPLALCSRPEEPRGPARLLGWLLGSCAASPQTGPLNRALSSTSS
Protocol: Human CRTH2 cDNA was amplified from human eosinophil cDNA with gene specific primers containing restriction sites for cloning into pEAK vector (Edge Bio Systems). The human CRTH2 cDNA was cloned into the mammalian expression vector pEAK. This expression plasmid (40 μg) was transfected into L1.2 cells, at a cell density of 1×10^7 cells/500 μl, by using electroporation apparatus (Gene Pulser II, BioRad) at 250V/1,000 μF. One day after the transfection, puromycin (1 μg/ml, Sigma) was added into the cell culture plates. Two weeks after the transfection, grown cells were picked up for further growth.
[Measurement of Ca^2+ Mobilization in the Human CRTH2-Transfected L1.2 Cell Line] (Assay 1)
Ca^2+ loading buffer was prepared by mixing 5 μl of Fluo-3AM (2 mM in DMSO, final 1 μM, Molecular Probes) and 10 μl of pluronic F-127 (Molecular Probes) and diluting the resulting mixture in 10 ml of Ca^2+ assay buffer (20 mM HEPES pH 7.6, 0.1% BSA, 1 mM probenecid, Hanks' solution). The CRTH2 transfected cells which were prepared in Example 1 were washed with PBS, resuspended in Ca^2+ loading buffer at 1×10^7 cells/ml, and incubated for 60 min at room temperature. After incubation, cells were washed and resuspended in Ca^2+ assay buffer, then dispensed into transparent-bottom 96-well plates (#3631, Costar) at 2×10^5 cells/well. Cells were incubated with various concentrations of test compound for 5 minutes at room temperature. The emitted 480 nm fluorescence was measured on FDSS6000, a Ca^2+-measurement apparatus (Hamamatsu Photonics, Hamamatsu, Japan).
Assay results in Assay 1 are shown in Examples and tables of the Examples below. The data corresponds to the compounds as yielded by solid phase synthesis and thus to levels of purity of about 40 to 90%. For practical reasons, the compounds are grouped in four classes of activity as follows: IC50=A(< or =)10 nM<B(< or =)100 nM<C(< or =)500 nM<D

Row | Compound | pIC50 (human CRTH2) | melting point
1 | CN(C)c1nc(Cc2ccc(NC(=O)c3cccc(-c4ccccc4)c3)cc2)nc(N2CCCC2)c1CC(=O)O [Example 7-15] | 7.00 to 8.00 | 147 to 179 °C
2 | CC(c1ccc(NC(=O)c2ccc3ccccc3n2)cc1)c1ncc(CC(=O)O)c(N(C)C)n1 (stereo not shown) [Example 2-24] | 7.00 to 8.00 | 120 to 123 °C
3 | CCc1nc(Cc2ccc(NC(=O)c3ccc(C(F)(F)F)cc3)cc2)nc(N(C)C)c1CC(=O)O [Example 8-9] | > 8.00 | 153 to 155 °C
4 | CC(c1ccc(NC(=O)c2ccc(Cl)cc2)cc1)c1ncc(CC(=O)O)c(N(C)C)n1 (stereo not shown) [Example 2-25] | > 8.00 | 131 to 134 °C
5 | COCc1nc(Cc2ccc(NC(=O)c3ccc4ccccc4c3)cc2)nc(N(C)C)c1CC(=O)O [Example 8-6] | > 8.00 | 128 to 131 °C
6 | CN(C)c1nc(Cc2ccc(NC(=O)c3ccc(Cl)cc3)cc2)nc(N2CCOCC2)c1CC(=O)O [Example 7-18] | 6.30 to 7.00 | 216 to 218 °C (dec.)
7 | CN(C)c1nc(Cc2ccc(NC(=O)c3ccc4ccccc4n3)cc2)ncc1CC(=O)O [Example 2-9] | 7.00 to 8.00 | 136 to 144 °C
8 | CN(C)c1nc(Cc2ccc(NC(=O)c3ccccc3Oc3ccccc3)cc2)nc(N2CCCC2)c1CC(=O)O [Example 7-22] | < 6.30 | 192 to 194 °C
9 | CN(C)c1nc(Cc2ccc(NC(=O)c3ccc(C(F)(F)F)cc3)cc2)ncc1CC(=O)O [Example 2-13] | > 8.00 | 149 to 153 °C
10 | CN(CC(=O)NC1CCCC1)c1nc(Cc2ccc(NC(=O)c3ccc(C#N)cc3)cc2)nc(Cl)c1CC(=O)O [Example 1-27] | > 8.00 | 101 °C
11 | CC(=O)Nc1ccc(C(=O)Nc2ccc(Cc3nc(Cl)c(CC(=O)O)c(N4CCCC4)n3)cc2)cc1 [Example 1-54] | 7.00 to 8.00 | 189 °C
12 | CCc1nc(Cc2ccc(NC(=O)c3ccc4ccccc4c3)cc2)nc(N(C)C)c1CC(=O)O [Example 8-8] | > 8.00 | 148 to 150 °C
13 | O=C(O)Cc1c(Cl)nc(Cc2ccc(NC(=O)/C=C/c3ccccc3)cc2)nc1N1CCCC1 [Example 1-60] | > 8.00 | 120 °C
14 | O=C(O)Cc1c(Cl)nc(Cc2ccc(NC(=O)c3ccc(-n4cccc4)cc3)cc2)nc1N1CCCC1 [Example 1-57] | > 8.00 | 217 °C
15 | CN(CC(=O)NC1CCCC1)c1nc(Cc2ccc(NC(=O)Cc3cccc(Oc4ccccc4)c3)cc2)nc(Cl)c1CC(=O)O [Example 1-30] | > 8.00 | > 118 °C
16 | CN(CC(=O)NC1CCCC1)c1nc(Cc2ccc(NC(=O)Cc3ccc(Oc4ccccc4)cc3)cc2)nc(Cl)c1CC(=O)O [Example 1-31] | 7.00 to 8.00 | > 123 °C
17 | CN(C)c1nc(Cc2ccc(NC(=O)/C=C/c3ccc(Cl)cc3)cc2)nc(N2CCCC2)c1CC(=O)O [Example 7-10] | > 8.00 | 146 to 149 °C
18 | CN(C)c1nc(Cc2ccc(NC(=O)c3ccc(Cl)cc3)cc2)nc(Cl)c1CC(=O)O [Example 1-35] | > 8.00 | > 166 °C
19 | CC(c1ccc(NC(=O)c2ccc(F)cc2)cc1)c1ncc(CC(=O)O)c(N(C)C)n1 (stereo not shown) [Example 2-26] | > 8.00 | 114 to 117 °C
20 | N=C(N)Nc1ccc(C(=O)Nc2ccc(Cc3nc(Cl)c(CC(=O)O)c(N4CCCC4)n3)cc2)cc1 [Example 1-52] | < 6.30 | 176 °C
21 | CN(C)c1nc(Cc2ccc(NC(=O)c3ccc4ccccc4c3)cc2)ncc1CC(=O)O [Example 2-1, {4-(Dimethylamino)-2-[4-(2-naphthoylamino)benzyl]pyrimidin-5-yl}acetic acid] |  | 210 °C
22 | CN(c1nc(Cc2ccc(NC(=O)c3ccc4ccccc4c3)cc2)nc(Cl)c1CC(=O)O)C1CCCCC1 [Example 3-3] | > 8.00 | 
23 | CN(CC(=O)NC1CCCC1)c1nc(Cc2ccc(NC(=O)/C=C/c3ccccc3)cc2)ncc1CC(=O)O [Example 2-5] | > 8.00 | 
24 | CN(CC(=O)NC1CCCC1)c1nc(Cc2ccc(NC(=O)Nc3ccccc3)cc2)nc(Cl)c1CC(=O)O [Example 4-1, {2-{4-[(Anilinocarbonyl)amino]benzyl}-4-chloro-6-[[2-(cyclopentylamino)-2-oxoethyl](methyl)amino]pyrimidin-5-yl}acetatic acid] | 7.00 to 8.00 | 

Row | Compound | pIC50 (human CRTH2) | melting point
25 | Cc1nc(Cc2ccc(NC(=O)c3ccc4ccccc4c3)cc2)nc(N(C)C)c1CC(=O)O [Example 8-3] | > 8.00 | 
26 | O=C(O)Cc1c(Cl)nc(Cc2ccc(NC(=O)c3ccc4ccccc4c3)cc2)nc1N1CCCCC1 [Example 3-7] | > 8.00 | 
27 | CN(Cc1ccccc1)C(=O)Nc1ccc(Cc2ncc(CC(=O)O)c(N(C)C)n2)cc1 [Example 4-6] | 6.30 to 7.00 | 
28 | COc1nc(Cc2ccc(NC(=O)c3ccc4ccccc4c3)cc2)nc(Cl)c1CC(=O)O [Example 3-9] | > 8.00 | 
29 | CN(C)c1nc(Cc2ccc(N(C)C(=O)c3ccc4ccccc4n3)cc2)nc(Cl)c1CC(=O)O [Example 6-3] | < 6.30 | 
30 | CCN(CC)c1nc(Cc2ccc(NC(=O)c3ccc4ccccc4c3)cc2)nc(Cl)c1CC(=O)O [Example 3-11] | 7.00 to 8.00 | 
31 | CN(C)c1nc(Cc2ccc(NC(=O)c3ccc(Cl)cc3)cc2)ncc1CC(=O)O [Example 2-6] | > 8.00 | 
32 | CN(CC(=O)NC1CCCC1)c1nc(Cc2ccc(NCC3CCCCC3)cc2)nc(Cl)c1CC(=O)O [Example 5-1, {4-Chloro-2-{4-[(cyclohexylmethyl)amino]benzyl}-6-[[2-(cyclopentylamino)-2-oxoethyl](methyl)amino]pyrimidin-5-yl}acetic add] | < 6.30 | 
33 | CC(C)N(C)c1nc(Cc2ccc(NC(=O)c3ccc4ccccc4c3)cc2)nc(Cl)c1CC(=O)O [Example 3-4] | > 8.00 | 
34 | COc1cccc(C(=O)Nc2ccc(Cc3ncc(CC(=O)O)c(N(C)C)n3)cc2)c1 [Example 2-14] | 7.00 to 8.00 | 
35 | CN(C)c1nc(Cc2ccc(NC(=O)c3ccc4ccccc4c3)cc2)nc(N2CCOCC2)c1CC(=O)O [Example 7-1, {4-(Dimethylamino)-6-morpholin-4-yl-2-[4-(2-naphthoylamino)benzyl]pyrimidin-5-yl}acetic acid] | 7.00 to 8.00 | 
36 | CN(C)c1nc(Cc2ccc(NC(=O)c3ccc4ccccc4c3)cc2)nc(Cl)c1CC(N)=O [Example 11, N-(4-{[5-(2-Amino-2-oxoethyl)-4-chloro-6-(dimethylamino)pyrimidin-2-yl]methyl}phenyl)-2-naphthamide] |  | 189 to 190 °C
37 | Cc1nc(Cc2ccc(NC(=O)c3ccc4ccccc4c3)cc2)nc(N2CCCC2)c1CC(=O)O [Example 8-1, {4-Methyl-2-[4-(2-naphthoylamino)benzyl]-6-pyrrolidin-1-ylpyrimidin-5-yl}acetic acid] | > 8.00 | 
38 | CN(CC(=O)NC1CCCC1)c1nc(Cc2ccc(NC(=O)NCc3ccccc3)cc2)nc(Cl)c1CC(=O)O [Example 4-2] | 7.00 to 8.00 | 
39 | CN(C)c1nc(Cc2ccc(NC(=O)c3ccc(Cl)c(Cl)c3)cc2)nc(N(C)C)c1CC(=O)O [Example 7-6] | > 8.00 | 
40 | CN(CC(=O)NC1CCCC1)c1nc(Cc2ccc(NC(=O)c3ccc4ccccc4c3)cc2)ncc1CC(=O)O [Example 2-2] | > 8.00 | 
41 | CN(C)c1nc(Cc2ccc(N(C)C(=O)/C=C/c3ccccc3)cc2)nc(Cl)c1CC(=O)O [Example 6-2] | < 6.30 | 
42 | O=C(O)Cc1c(Cl)nc(Cc2ccc(NC(=O)c3ccc4ccccc4c3)cc2)nc1N1CCOCC1 [Example 3-6] | > 8.00 | 
43 | CN(CC(=O)NC1CCCC1)c1nc(Cc2ccc(NC(=O)c3ccccc3)cc2)ncc1CC(=O)O [Example 2-4] | 7.00 to 8.00 | 
44 | CN(CC(=O)NC1CCCC1)c1nc(Cc2ccc(NC/C=C/c3ccccc3)cc2)nc(Cl)c1CC(=O)O [Example 5-4] | 6.30 to 7.00 | 
45 | CSc1ccc(C(=O)Nc2ccc(Cc3nc(Cl)c(CC(=O)O)c(N4CCCC4)n3)cc2)cc1 [Example 3-15] | > 8.00 | 
46 | CN(C)c1nc(Cc2ccc(NC(=O)c3ccc(Br)cc3)cc2)ncc1CC(=O)O [Example 2-16] | > 8.00 | 
47 | Cc1nc(Cc2ccc(NC(=O)/C=C/c3ccccc3)cc2)nc(N(C)C)c1CC(=O)O [Example 8-5] | > 8.00 | 
